Measured values as given in US11744870B2, “Traditional Chinese medicine composition for treating metabolic syndrome and preparations thereof” (JIANGSU JIUXU PHARMACEUTICAL CO., LTD., priority 2018, dated 2023).

Tests used:
Assay type in all cases: in vivo
[1] = system: KKAy mice with spontaneous type 2 diabetes; experiment: Glycosylated hemoglobin (HbA1c) level in KKAy mice; conditions: 48th day, 150 mg/kg
Protocol: (§1) The female KKAy mice with spontaneous type 2 diabetes were fed with a diet dedicated for KKAy mice, with 5 mice in each cage. When the mice weighed over 40 g, prediction of a plurality of indexes such as blood glucose, blood lipid, and insulin resistance were performed. Based on fasting blood glucose, blood glucose reduction percentage within 40 min in an insulin tolerance test, blood triglyceride (TG), total cholesterol (TC), and weight, the mice were divided into 5 groups, with 12 mice in each group.
The KKAy mice with spontaneous type 2 diabetes were divided into 5 groups based on the following five indexes: blood glucose reduction percentage within 40 min in an insulin tolerance test, fasting blood glucose, blood TG, blood TC, and weight. […] Animals in the three dosage groups underwent gavage with 500, 1000, and 1500 mg/kg of the traditional Chinese medicine extract composition of the present invention respectively. The female C57BL/6J mice were used as a normal animal control group (Nor, underwent gavage with a equal volume of water, n=10). Gavage was performed once a day for 58 consecutive days, and blood was collected from the tail tip on the 48th day to measure the glycosylated hemoglobin level.

[2] = system: C57BL/6J mice fed with a high-fat diet; experiment: Insulin tolerance test in C57BL/6J mice fed with a high-fat diet; conditions: 10th day, 150 mg/kg
Protocol: The male C57BL/6J mice were fed with a high-fat and high-nutrient diet, with 5 mice in each cage. When the mice weighed over 45 g, prediction of a plurality of indexes such as blood glucose, blood lipid, and insulin resistance were performed. Based on fasting blood glucose, blood glucose reduction percentage within 40 min in an insulin tolerance test, blood TG, blood TC, and weight, the mice were divided into 5 groups, with 12 mice in each group.
C57BL/6J mice fed a with high-fat diet and weighing more than 45 g were selected for multi-index prediction tests such as blood glucose, blood lipids, and insulin resistance, and were divided into 5 groups based on the following five indexes: blood glucose reduction percentage within 40 min in an insulin tolerance test, fasting blood glucose, blood TG, blood TC, and weight, with 12 mice in each group. […] Male C57BL/6J mice were used as a normal animal control group. Animals in the positive drug group and each test drug group underwent gavage with a corresponding dosage of the test drug each day. The normal control group and model group underwent gavage with an equal volume of water once a day for 30 days. Animals in each group underwent an insulin tolerance test on the 10th day of the administration. On the test day, the animals fasted for 4 hours (free to drink water), blood was collected from the tail tip (0 min), and then regular insulin (0.4 U/kg) was injected subcutaneously.

[3] = system: KKAy mice with spontaneous type 2 diabetes; experiment: Blood pressure of KKAy mice (non-invasive sphygmomanometer); conditions: 53rd day, 150 mg/kg
Protocol: The KKAy mice with spontaneous type 2 diabetes were divided into 5 groups based on the following five indexes: blood glucose reduction percentage within 40 min in an insulin tolerance test, fasting blood glucose, blood TG, blood TC, and weight. […] The female C57BL/6J mice were used as a normal animal control group (Nor, underwent gavage with a equal volume of water, n=10). Gavage was performed once a day for 58 consecutive days, and onOn the 53rd day of administration to the animals in each group, the blood pressure was measured by using an intelligent non-invasive sphygmomanometer (BP98A, Beijing Ruanlong Biotechnology Co., Ltd.).

[4] = system: KKAy mice with spontaneous type 2 diabetes; experiment: Fasting blood glucose, blood insulin and insulin sensitivity index in KKAy mice; conditions: 28th day, 150 mg/kg
Protocol: The KKAy mice with spontaneous type 2 diabetes were divided into 5 groups based on the following five indexes: blood glucose reduction percentage within 40 min in an insulin tolerance test, fasting blood glucose, blood TG, blood TC, and weight. […] Animals in the three dosage groups underwent gavage with 500, 1000, and 1500 mg/kg of the traditional Chinese medicine extract composition of the present invention respectively. […] Gavage was performed once a day for 58 consecutive days, and fasting blood glucose and blood insulin level were measured (ELISA method) at the same time when a glucose tolerance test was carried out on the animals in each group on the 28th day of administration, and an insulin sensitivity index (ISI) was calculated, wherein ISI=1/(FBGmg/dl×FBIng/ml).

[5] = system: KKAy mice with spontaneous type 2 diabetes; experiment: Serum triglyceride and total cholesterol in KKAy mice; conditions: 14th day, 150 mg/kg
Protocol: as §1
The KKAy mice with spontaneous type 2 diabetes were divided into 5 groups based on the following five indexes: blood glucose reduction percentage within 40 min in an insulin tolerance test, fasting blood glucose, blood TG, blood TC, and weight. […] The female C57BL/6J mice were used as a normal animal control group (Nor, underwent gavage with a equal volume of water, n=10). Gavage was performed once a day for 58 consecutive days, and at the same time when the animals in each group underwent an insulin tolerance test on the 14th day of administration, blood was collected to measure the serum triglyceride (TG) and total cholesterol (TC) levels.

[6] = system: KKAy mice with spontaneous type 2 diabetes; experiment: Hyperinsulinemic-euglycemic clamp in KKAy mice; conditions: after 54th day, SSBG 6.0 mmol/L, IIR 20.0 mU/kg/min, 150 mg/kg
Protocol: as §1
The KKAy mice with spontaneous type 2 diabetes were divided into 5 groups based on the following five indexes: blood glucose reduction percentage within 40 min in an insulin tolerance test, fasting blood glucose, blood TG, blood TC, and weight. […] The female C57BL/6J mice were used as a normal animal control group (Nor, underwent gavage with a equal volume of water, n=10). Gavage was performed once a day for 58 consecutive days, and After the 54th day of administration to the animals in each group, 5-6 mice were randomly selected from different groups to carry out a hyperinsulinemic-euglycemic clamp test each day.

CN(C)C(=N)N=C(N)N [Met, metformin]
HbA1c [1]: 4.34 ± 0.83 %
Glu ([2]; 0 min): 104.5 ± 7.6 mg/dL
Glu ([2]; 40 min): 78.3 ± 10.3 mg/dL
Glu ([2]; 90 min): 87.5 ± 24.6 mg/dL
BP [3]: 118.7 ± 10.8 mmHG
Blood insulin ([4]; ELISA): 36.3 ± 27.6 ng/mL
ISI ([4]; ISI=1/(FBGmg/dl×FBIng/ml)): 0.26 ± 0.16 ×10^−3
Serum TC [5]: 243.8 ± 44.0 mg/dL
Serum TG [5]: 253.2 ± 172.6 mg/dL
GIR [6]: 14.5 ± 0.6 mg/kg · min
